Source: patent US6423704B1, “Substituted 4-(1H-benzimidazol-2-yl)[1,4]diazepanes useful for the treatment of allergic diseases” (Aventis Pharmaceuticals Inc., priority 1995, dated 2002)
Structures can show the parent of a compound that is named as a salt.

| Structure (SMILES) | melting point [°C] |
| --- | --- |
| CCOCCn1c(N2CCCN(CCC3(c4ccc(OC)c(OC)c4)CCN(C(=O)c4cc(OC)c(OC)c(OC)c4)C3)CC2)nc2ccccc21 (centres unmarked) (as salt: salt) [Example 1, 1-(3,4,5-Trimethoxybenzoyl)-3-(2-(4-(1-(2-ethoxyethyl)-1H-benzimidazol-2-yl)[1,4]diazepan-1-yl)ethyl)-3-(3,4-dimethoxyphenyl)pyrrolidine] | 90 to 100 |
| CCOCCn1c(N2CCCN(CCC3(c4ccccn4)CCN(C(=O)c4cc(OC)c(OC)c(OC)c4)C3)CC2)nc2ccccc21 (centres unmarked) [Example 32, 1-(3,4,5-Trimethoxybenzoyl)-3-(2-(4-(1-(2-ethoxyethyl)-1H-benzimidazol-2-yl)[1,4]diazepan-1-yl)ethyl)-3-(pyrid-2-yl)pyrrolidine] | 40 to 42 |
